Test results taken from US20250271439A1, “PROTEOMIC SIGNATURE OF PLASMA EXTRACELLULAR VESICLES CLASSIFIES RESPONSE TO DOXORUBICIN AND CANCER” (Washington University, priority 2022, published 2025).

Assays:
sarcoma patients = assay: Tumor response to doxorubicin monotherapy assessed by RECIST version 1.1 (SARC021 trial); format: in vivo, human; settings: two cycles of 75 mg/m^2 doxorubicin, 6 weeks
Procedure: Plasma was acquired from a cohort of 40 sarcoma patients on the doxorubicin monotherapy control arm of the international, open-label, prospective, randomized, phase 3, multicenter SARC021 trial (TH CR-406)^16. SARC021 was conducted at 81 academic or community investigational sites across 13 countries, and one arm of the trial treated patients with doxorubicin alone, the standard of care. Samples were obtained from 8 different sarcoma subtypes in the cohort, including angiosarcoma (AS), epitheloid sarcoma (EPI), leiomyosarcoma (LMS), liposarcoma (LS), myxofibrosarcoma (MFS), malignant peripheral nerve sheath tumor (MPNST), rhabdomyosarcoma (PMRMS), and undifferentiated pleomorphic sarcoma (UPS). The number of patients per sarcoma subtype ranged from 1 to 13 (Table 1).
Plasma for the sarcoma cohort was acquired prior to treatment with two cycles of 75 mg/m^2 doxorubicin, and just prior to cycle 3, for a total treatment time of 6 weeks (FIG. 1A). […]
Doxorubicin treatment and plasma collection: Plasma was obtained from anonymized sarcoma patients on the TH CR-406/SARC021 clinical trial, registered with ClinicalTrials.gov as NCT01440088 and entitled “A Trial of TH-302 in Combination With Doxorubicin Versus Doxorubicin Alone to Treat Patients With Locally Advanced Unresectable or Metastatic Soft Tissue Sarcoma”^84. […] Tumor response was assessed at the end of cycle 2 using RECIST version 1.1^18. […]

plasma EV proteome = assay: Label free quantitative proteomics of plasma EVs before versus after doxorubicin treatment; format: in vivo, human; settings: SARC021 sarcoma cohort; also considering the patient's treatment sensitivity; FIG. 5A

In the case of `COc1cccc2c1C(=O)c1c(O)c3c(c(O)c1C2=O)C[C@@](O)(C(=O)CO)C[C@@H]3O[C@H]1C[C@H](N)[C@H](O)[C@H](C)O1` [doxorubicin], the “sarcoma patients considered treatment resistant” value (sarcoma patients; cohort of 40 sarcoma patients) is reported as 37.5%, the “number of sarcoma patients considered treatment resistant” value (sarcoma patients; of 40 sarcoma patients) is reported as 15 and the “change in EV protein abundance, plasma samples collected before and after treatment” value (plasma EV proteome) is reported as “no statistically significant change”.
